Measurements reported in PMC9518245 (Journal of Enzyme Inhibition and Medicinal Chemistry, 2022).
Read-outs that look alike come from different tables or passages of the source.

Columns and labels:
[1] = target: T1, FLAP (5-LOX product formation) (Homo sapiens, UniProt P20292); assay: FLAP-dependent 5-LOX product formation in human neutrophils; assay type: cell-based; conditions: for IC50: human neutrophils, A23187 stimulated, read-out: FLAP (5-LOX product formation) IC50 ± SEM
T1 construct: Human neutrophils were isolated from buffy coats of healthy adult fasted donors; endogenous in cells; host or cells: primary human neutrophils from buffy coats
T1 sequence (P20292 1-161): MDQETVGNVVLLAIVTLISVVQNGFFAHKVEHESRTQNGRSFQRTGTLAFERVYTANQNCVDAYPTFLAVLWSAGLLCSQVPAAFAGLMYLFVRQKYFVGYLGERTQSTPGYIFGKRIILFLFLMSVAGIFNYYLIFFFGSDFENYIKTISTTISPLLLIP
Description: Human neutrophils were isolated from buffy coats of healthy adult fasted donors as described recently.[32] […] 200 ng of internal PGB1 standard was added to the acidified samples and solid-phase-extraction using C18 RP-columns (100 mg, UCT, Bristol, PA, USA) was performed. Samples were eluted with methanol and 5-LOX products including 5-HpETE, and the corresponding alcohol 5-HETE, LTB4, and all-trans-isomers of LTB4 were analysed by RP-HPLC with a C-18 Radial-PAK column (Waters, Eschborn, Germany) as described.[33]

Human recombinant sEH = target: T2, Human recombinant sEH (Homo sapiens, UniProt P34913); assay: sEH activity assay (PHOME fluorescence, cell-free); assay type: biochemical
T2 construct: made in house
T2 sequence (P34913 1-555): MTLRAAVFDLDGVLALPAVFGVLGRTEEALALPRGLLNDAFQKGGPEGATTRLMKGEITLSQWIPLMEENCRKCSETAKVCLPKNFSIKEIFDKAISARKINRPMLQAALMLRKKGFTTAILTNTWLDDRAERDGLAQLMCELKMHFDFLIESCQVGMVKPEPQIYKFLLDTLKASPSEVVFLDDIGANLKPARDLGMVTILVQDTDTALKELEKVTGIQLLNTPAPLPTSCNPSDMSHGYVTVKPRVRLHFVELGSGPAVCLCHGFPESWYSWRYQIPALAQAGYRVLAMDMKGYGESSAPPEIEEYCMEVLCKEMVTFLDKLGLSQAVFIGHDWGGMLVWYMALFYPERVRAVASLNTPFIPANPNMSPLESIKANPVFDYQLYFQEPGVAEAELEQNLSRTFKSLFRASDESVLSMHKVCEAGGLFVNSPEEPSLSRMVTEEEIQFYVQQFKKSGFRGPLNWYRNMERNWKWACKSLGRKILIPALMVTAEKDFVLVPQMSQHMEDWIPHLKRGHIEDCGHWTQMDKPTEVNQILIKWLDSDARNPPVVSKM
Description: Human recombinant sEH was expressed and purified as published.[23] Isolated sEH was diluted in 25 mM Tris buffer (pH 7) containing 0.1 mg/mL BSA to a final protein concentration of 0.5 µg/mL. Preincubation with test compounds or 0.1% vehicle (DMSO) at room temperature for 10 min was followed by stimulation with 50 µM PHOME at RT for 60 min. Reactions were stopped with 200 mM ZnSO4 and fluorescence was subsequently detected at λem 465 nm and λex 330 nm. If required, possible fluorescence of the compounds was subtracted from the read-out.

[2] = target: T1, FLAP (5-LOX product formation); conditions: neutrophils; cited from earlier work
[3] = parameters: method as in PMID 28218273, PMID 26882208, PMID 28839250; conditions: cited from earlier work
LT biosynthesis = conditions: cited from earlier work
[4] = lead compound, stated without reference; cited from earlier work
[5] = read-out: sEH IC50 ± SEM, human recombinant sEH, cell-free

Cc1cc(NC(=S)Nc2ccc(Cl)c(Cl)c2)ccc1OCc1nc2ccccc2[nH]1 [Compound 6f, 1-(4-((1H-benzo[d]imidazol-2-yl)methoxy)-3-methylphenyl)-3-(3,4-dichlorophenyl)thiourea]
IC50 [1]: 750 ± 170 nM
IC50 (Human recombinant sEH): 772 ± 169 nM
melting point: 167 to 168 °C

Cc1cc(OCc2nc3ccccc3n2C(=O)OC(C)(C)C)ccc1NC(=S)Nc1ccc(Cl)c(Cl)c1 [Compound 5d, tert-butyl 2-((4-(3-(3,4-dichlorophenyl)thioureido)-3-methylphenoxy)methyl)-1H-benzo[d]imidazole-1-carboxylate]
FLAP activity (in words) [1]: Inactive
IC50 [1]: > 10000 nM
sEH activity (in words) (Human recombinant sEH): inactive
IC50 (Human recombinant sEH; [5]): > 10000 nM
melting point: 172 °C

O=C(Nc1ccc(OCc2nc3ccccc3[nH]2)cc1)Nc1ccc(Cl)c(Cl)c1 [Compound 6b, 1-(4-((1H-benzo[d]imidazol-2-yl)methoxy)phenyl)-3-(3,4-dichlorophenyl)urea]
IC50 [1]: 600 ± 100 nM
IC50 (Human recombinant sEH): 10.5 ± 1.9 nM
melting point: 272 °C

CC(C)c1ccc2c(c1)c(SC(C)(C)C)c(CC(C)(C)C(=O)O)n2Cc1ccc(Cl)cc1 [MK-886]
IC50 [2]: 10 to 14 nM

Cc1cc(OCc2nc3ccccc3n2C(=O)OC(C)(C)C)ccc1NC(=O)Nc1ccc(Cl)c(Cl)c1 [Compound 5a, tert-butyl-2-((4-(3-(3,4-dichlorophenyl)ureido)-3-methylphenoxy)methyl)-1H-benzo[d]imidazole-1-carboxylate]
IC50 [1]: 3700 ± 900 nM
IC50 (Human recombinant sEH): 0.7 ± 0.1 nM
melting point: 261 to 263 °C

CC(C)(C)OC(=O)n1c(COc2ccc(NC(=S)Nc3ccc(Cl)c(Cl)c3)cc2)nc2ccccc21 [Compound 5e, tert-butyl 2-((4-(3-(3,4-dichlorophenyl)thioureido)phenoxy)methyl)-1H-benzo[d]imidazole-1-carboxylate]
IC50 [1]: > 10000 nM
IC50 (Human recombinant sEH): 19.1 ± 7.2 nM
melting point: 165 to 167 °C

Cc1cc(NC(=O)Nc2ccc(Cl)c(Cl)c2)ccc1OCc1nc2ccccc2[nH]1 [Compound 6c, 1-(4-((1H-benzo[d]imidazol-2-yl)methoxy)-3-methylphenyl)-3-(3,4-dichlorophenyl)urea]
IC50 [1]: 400 ± 10 nM
IC50 (Human recombinant sEH): 4.9 ± 1 nM
melting point: 228 to 230 °C

Cc1cc(OCc2nc3ccccc3s2)ccc1NC(=O)Nc1ccc(Cl)c(Cl)c1 [Diflapolin]
acute cytotoxicity [3]: no acute cytotoxicity
LT biosynthesis in vivo (LT biosynthesis): efficiently inhibits LT biosynthesis in vivo
anti-inflammatory activity in mouse (LT biosynthesis; mouse): strong anti-inflammatory activity
solubility [4]: poor solubility

Cc1cc(NC(=S)Nc2ccc(Cl)c(Cl)c2)ccc1OCc1nc2ccccc2n1C(=O)OC(C)(C)C [Compound 5f, tert-butyl 2-((4–(3-(3,4-dichlorophenyl)thioureido)-2-methylphenoxy)methyl)-1H-benzo[d]imidazole-1-carboxylate]
IC50 [1]: > 10000 nM
IC50 (Human recombinant sEH): 17.5 ± 12.7 nM
melting point: 169 to 172 °C

Cc1cc(OCc2nc3ccccc3[nH]2)ccc1NC(=O)Nc1ccc(Cl)c(Cl)c1 [Compound 6a, 1-(4-((1H-benzo[d]imidazol-2-yl)methoxy)-2-methylphenyl)-3-(3,4-dichlorophenyl)urea]
IC50 [1]: 700 ± 100 nM
IC50 (Human recombinant sEH; [5]): 56.9 ± 19.4 nM
melting point: 245 to 246 °C

S=C(Nc1ccc(OCc2nc3ccccc3[nH]2)cc1)Nc1ccc(Cl)c(Cl)c1 [Compound 6e, 1-(4-((1H-benzo[d]imidazol-2-yl)methoxy)phenyl)-3-(3,4-dichlorophenyl)thiourea]
IC50 [1]: 500 ± 100 nM
IC50 (Human recombinant sEH): 271 ± 58.4 nM
melting point: 160 to 162 °C

Cc1cc(OCc2nc3ccccc3[nH]2)ccc1NC(=S)Nc1ccc(Cl)c(Cl)c1 [Compound 6d, 1-(4-((1H-benzo[d]imidazol-2-yl)methoxy)-2-methylphenyl)-3-(3,4-dichlorophenyl)thiourea]
IC50 [1]: 600 ± 100 nM
IC50 (Human recombinant sEH): 223 ± 85.8 nM
melting point: 122 to 124 °C

CC(C)(C)OC(=O)n1c(COc2ccc(NC(=O)Nc3ccc(Cl)c(Cl)c3)cc2)nc2ccccc21 [Compound 5b, tert-butyl 2-((4-(3-(3,4-dichlorophenyl)ureido)phenoxy)methyl)-1H-benzo[d]imidazole-1-carboxylate]
IC50 [1]: > 10000 nM
IC50 (Human recombinant sEH): 0.63 ± 0.1 nM
melting point: 262 to 264 °C

Cc1cc(NC(=O)Nc2ccc(Cl)c(Cl)c2)ccc1OCc1nc2ccccc2n1C(=O)OC(C)(C)C [Compound 5c, tert-butyl-2-((4-(3-(3,4-dichlorophenyl)ureido)-2-methylphenoxy)methyl)-1H-benzo[d]imidazole-1-carboxylate]
IC50 [1]: > 10000 nM
IC50 (Human recombinant sEH): 0.7 ± 0.1 nM
melting point: 145 to 146 °C
